Measurements taken from publication PMC11953117 (Cancer Chemotherapy and Pharmacology, 2025).
Where two headings read alike, the source gives them in different places.

Tests used:
[1] = Capivasertib exposure metrics at steady state projected with PopPK model, patients with solid tumors; assay type: in vivo; conditions: human, plasma, oral; for concentration at 12 h: read-out: Cmin
Method: Study 1 (NCT01226316) was a phase 1 open-label multipart study. […] The duration of the treatment cycles was 21 days. […] [18]. […] [18, 25, 39].
Study 4 (NCT01353781) was a phase 1 dose-escalation study in Japanese patients with advanced solid malignancies.
The exposure–response analyses were conducted using a subset of patients from the PopPK analysis where capivasertib was used as monotherapy. […] As different schedules were assessed between and within studies, the exposure metrics were derived for the last dose of the last dosing day in the second week of treatment (i.e. on days 14, 11, and 9 for the continuous, [4/3] and [2/5] schedules, respectively), to ensure SS conditions, using the planned dose. […] The relative dose intensity (RDI) was calculated as the percentage of the average weekly dose relative to the PWD to examine the tolerability of capivasertib monotherapy at the given dosing schedules.

[2] = cited from earlier work
[3] = 320 mg, Study 4 (Japanese patients), Continuous BID, PWD 4480 mg, N=6, median (range)
[4] = 360 mg, Study 4 (Japanese patients), [4/3] BID, PWD 2880 mg, N=8, median (range)
[5] = 400 mg, Study 4 (Japanese patients), Continuous BID, PWD 5600 mg, N=5, median (range)
[6] = 480 mg, OAK, [4/3] BID, PWD 3840 mg, N=30, median (range)
[7] = 480 mg, Study 1, [4/3] BID, PWD 3840 mg, N=127, median (range)
[8] = 480 mg, Study 4 (Japanese patients), [4/3] BID, PWD 3840 mg, N=6, median (range)
[9] = 600 mg, Study 1, Continuous BID, PWD 8400 mg, N=2, median (range)
[10] = 640 mg, Study 1, [2/5] BID, PWD 2560 mg, N=8, median (range)
[11] = 640 mg, Study 1, [4/3] BID, PWD 5120 mg, N=10, median (range)
[12] = 640 mg, Study 4 (Japanese patients), [2/5] BID, PWD 2560 mg, N=6, median (range)
[13] = 800 mg, Study 1, [2/5] BID, PWD 3200 mg, N=14, median (range)

Compound `NC1(C(=O)N[C@@H](CCO)c2ccc(Cl)cc2)CCN(c2ncnc3[nH]ccc23)CC1` [capivasertib, 4-amino-N-[(1S)-1-(4-chlorophenyl)-3-hydroxypropyl]-1-(7H-pyrrolo[2,3-d]pyrimidin– 4-yl)piperidine-4-carboxamide] has an AUC ([1]; 320 mg, Study 1, Continuous BID, 320 mg, PWD 4480 mg, N=12, median (range), read-out: AUCss(0–12 h)) of 5860 ng·h/mL, a concentration at 12 h ([1]; 320 mg, Study 1, Continuous BID, 320 mg, PWD 4480 mg, N=12, median (range)) of 200 ng/mL and a Cmax ([1]; 320 mg, Study 1, Continuous BID, PWD 4480 mg, N=12, median (range)) of 870 ng/mL. It also gave an AUC ([1]; 320 mg, Study 4 (Japanese patients), Continuous BID, 320 mg, PWD 4480 mg, N=6, median (range), read-out: AUCss(0–12 h)) of 6560 ng·h/mL, a concentration at 12 h ([1]; 320 mg, Study 4 (Japanese patients), Continuous BID, 320 mg, PWD 4480 mg, N=6, median (range)) of 150 ng/mL and an AUC at 1 week [1, 3] of 91800 ng·h/mL. The Cmax [1, 3] was 1380 ng/mL, the AUC ([1]; 360 mg, Study 4 (Japanese patients), [4/3] BID, 360 mg, PWD 2880 mg, N=8, median (range), read-out: AUCss(0–12 h)) was 6100 ng·h/mL and the concentration at 12 h ([1]; 360 mg, Study 4 (Japanese patients), [4/3] BID, 360 mg, PWD 2880 mg, N=8, median (range)) was 210 ng/mL. For the same compound, the AUC at 1 week [1, 4] was 48800 ng·h/mL, the Cmax [1, 4] was 960 ng/mL and the AUC ([1]; 400 mg, Study 1, Continuous BID, 400 mg, PWD 5600 mg, N=11, median (range), read-out: AUCPWD) was 81000 ng·h/mL. For the same compound, the AUC ([1]; 400 mg, Study 1, Continuous BID, 400 mg, PWD 5600 mg, N=11, median (range), read-out: AUCss(0–12 h)) was 5790 ng·h/mL, the concentration at 12 h ([1]; 400 mg, Study 1, Continuous BID, 400 mg, PWD 5600 mg, N=11, median (range)) was 190 ng/mL and the Cmax ([1]; 400 mg, Study 1, Continuous BID, PWD 5600 mg, N=11, median (range)) was 900 ng/mL. For the same compound, the AUC ([1]; 400 mg, Study 4 (Japanese patients), Continuous BID, 400 mg, PWD 5600 mg, N=5, median (range), read-out: AUCss(0–12 h)) was 7750 ng·h/mL, the concentration at 12 h ([1]; 400 mg, Study 4 (Japanese patients), Continuous BID, 400 mg, PWD 5600 mg, N=5, median (range)) was 270 ng/mL and the AUC at 1 week [1, 5] was 109000 ng·h/mL. The Cmax [1, 5] was 1240 ng/mL, the AUC ([1]; 480 mg, OAK, [4/3] BID, 480 mg, PWD 3840 mg, N=30, median (range), read-out: AUCss(0–12 h)) was 9750 ng·h/mL and the concentration at 12 h ([1]; 480 mg, OAK, [4/3] BID, 480 mg, PWD 3840 mg, N=30, median (range)) was 330 ng/mL. It also gave an AUC at 1 week [1, 6] of 78000 ng·h/mL, a Cmax [1, 6] of 1580 ng/mL and an AUC ([1]; 480 mg, Study 1, Continuous BID, 480 mg, PWD 6720 mg, N=6, median (range), read-out: AUCPWD) of 140000 ng·h/mL. The AUC ([1]; 480 mg, Study 1, Continuous BID, 480 mg, PWD 6720 mg, N=6, median (range), read-out: AUCss(0–12 h)) was 9980 ng·h/mL, the concentration at 12 h ([1]; 480 mg, Study 1, Continuous BID, 480 mg, PWD 6720 mg, N=6, median (range)) was 370 ng/mL and the Cmax ([1]; 480 mg, Study 1, Continuous BID, PWD 6720 mg, N=6, median (range)) was 1620 ng/mL. It also gave an AUC ([1]; 480 mg, Study 1, [4/3] BID, 480 mg, PWD 3840 mg, N=127, median (range), read-out: AUCss(0–12 h)) of 9690 ng·h/mL, a concentration at 12 h ([1]; 480 mg, Study 1, [4/3] BID, 480 mg, PWD 3840 mg, N=127, median (range)) of 330 ng/mL and an AUC at 1 week [1, 7] of 77400 ng·h/mL. It also gave a Cmax [1, 7] of 1590 ng/mL, an AUC ([1]; 480 mg, Study 4 (Japanese patients), [4/3] BID, 480 mg, PWD 3840 mg, N=6, median (range), read-out: AUCss(0–12 h)) of 10800 ng·h/mL and a concentration at 12 h ([1]; 480 mg, Study 4 (Japanese patients), [4/3] BID, 480 mg, PWD 3840 mg, N=6, median (range)) of 290 ng/mL. It also gave an AUC at 1 week [1, 8] of 86800 ng·h/mL, a Cmax [1, 8] of 1880 ng/mL and an AUC ([1]; 600 mg, Study 1, Continuous BID, 600 mg, PWD 8400 mg, N=2, median (range), read-out: AUCss(0–12 h)) of 14300 ng·h/mL. The concentration at 12 h ([1]; 600 mg, Study 1, Continuous BID, 600 mg, PWD 8400 mg, N=2, median (range)) was 460 ng/mL, the AUC at 1 week [1, 9] was 200000 ng·h/mL and the Cmax [1, 9] was 2520 ng/mL. The AUC ([1]; 640 mg, Study 1, [2/5] BID, 640 mg, PWD 2560 mg, N=8, median (range), read-out: AUCss(0–12 h)) was 15000 ng·h/mL, the concentration at 12 h ([1]; 640 mg, Study 1, [2/5] BID, 640 mg, PWD 2560 mg, N=8, median (range)) was 570 ng/mL and the AUC at 1 week [1, 10] was 59800 ng·h/mL. It also gave a Cmax [1, 10] of 2080 ng/mL, an AUC ([1]; 640 mg, Study 1, [4/3] BID, 640 mg, PWD 5120 mg, N=10, median (range), read-out: AUCss(0–12 h)) of 15900 ng·h/mL and a concentration at 12 h ([1]; 640 mg, Study 1, [4/3] BID, 640 mg, PWD 5120 mg, N=10, median (range)) of 550 ng/mL. It also gave an AUC at 1 week [1, 11] of 127000 ng·h/mL, a Cmax [1, 11] of 2430 ng/mL and an AUC ([1]; 640 mg, Study 4 (Japanese patients), [2/5] BID, 640 mg, PWD 2560 mg, N=6, median (range), read-out: AUCss(0–12 h)) of 15200 ng·h/mL. It also gave a concentration at 12 h ([1]; 640 mg, Study 4 (Japanese patients), [2/5] BID, 640 mg, PWD 2560 mg, N=6, median (range)) of 570 ng/mL, an AUC at 1 week [1, 12] of 61000 ng·h/mL and a Cmax [1, 12] of 2480 ng/mL. It also gave an AUC ([1]; 800 mg, Study 1, [2/5] BID, 800 mg, PWD 3200 mg, N=14, median (range), read-out: AUCss(0–12 h)) of 26400 ng·h/mL, a concentration at 12 h ([1]; 800 mg, Study 1, [2/5] BID, 800 mg, PWD 3200 mg, N=14, median (range)) of 1080 ng/mL and an AUC at 1 week [1, 13] of 106000 ng·h/mL. The Cmax [1, 13] was 3930 ng/mL, the “dose proportionality of plasma exposure” value ([2]; dose range of 80–480 mg) was “approximately dose proportional” and the half-life ([2]; patients) was “approximately 8 h”.
